# Laboratory results reported in patent US8431606B2, “Medicament for treating schizophrenia comprising cilostazol” (Otsuka Pharmaceutical Co., Ltd., priority 2007, dated 2013).
# How the values were obtained:
# Format in all cases: in vivo
# [1] = tested on: dizocilpine-induced PPI deficits in mice; test: prepulse inhibition of the acoustic startle reflex, dizocilpine-induced PPI deficits in mice; details: dizocilpine 0.1 mg/kg, cilostazol administered one hour before testing, dose dependent manner
# Method: The test animals were prepared by similar means of the above Example 2. Cilostazol was administered one hour before testing. Testing was conducted in eight startle devices each consisting of a Plexiglas cylinder (5 cm in diameter) mounted on a Plexiglas platform in a ventilated sound attenuated cubicle with a high-frequency loudspeaker producing all acoustic stimuli. The background noise of each chamber was 65 dB. Movements within the cylinder were detected and transduced by a piezoelectric accelerometer attached to the Plexiglas base and digitized and stored by a computer. Beginning at the stimulus onset, readings were recorded to obtain the animals' startle amplitude. Each section was initiated with a 10 minutes acclimation period followed by six successive trials, which were not included in the analysis. Startle pulse alone (ST110, 110 dB/40 msec); eight different prepulse trials in which either 20-msec-long 69, 73, 77, and 81 dB stimuli were presented alone (P69, P73, P77, P81) or preceded the 110 dB pulse by 100 msec (PP69, PP73, PP77, PP81); and finally one trial in which only the background noise was presented to measure the baseline movements in the cylinder. All trials were presented in a pseudorandom order, and the average intertrial interval (ITI) was […]. The startle data and percentage prepulse inhibition (PPI) were analyzed by MANOVA (two-ways ANOVA).
# [2] = tested on: locomotion of mice enhanced by administering dizocilpine; test: dizocilpine-induced hyperlocomotion in mice; details: male ddY mice; cilostazol 0.03-3.0 mg/kg orally 30 minutes before dizocilpine 0.1 mg/kg s.c.; locomotion measured for 2 hours
# Method: In this experiment, cilostazol was studied about the effect affecting the locomotion of mice which was enhanced by administering dizocilpine.
# Male ddY mice (7-8 weeks old) were put in a scanning apparatus of spontaneous motor activity (SCANET SV-10, Melquest, Toyama, Japan). After 30 minutes, vehicle (0.3% CMC) or cilostazol (0.03, 0.1, 0.3, 1.0, and 3.0 mg/kg) was orally administered to the mice, and after additional 30 minutes dizocilpine (0.1 mg/kg) was administered subcutaneously. Then, the locomotion of the mice was measured for 2 hours.
# [3] = tested on: model animals prepared with phencyclidine; test: re-recognizing test for a new object in model animals prepared with phencyclidine; details: male ICR mice, phencyclidine 10 mg/kg s.c. 10 days
# Method: Male ICR mice (6 weeks old, 25-30 g, purchased from Japan SLC, Inc.) were used as experimental animals. The experimental procedure was approved by the laboratory animal ethics committee in the Graduate School of Medicine and School of Medicine, Chiba University. Phencyclidine was subcutaneously administered to the mice in 10 mg/kg once a day for 10 days. […] Twenty four hours after the final administration, re-recognizing test for a new object was carried out. The re-recognizing test for a new object was carried out using a black open-field (50.8×50.8×25.4 cm). The mice were made to be trained in the open-field for three days before starting the re-recognizing test for a new object. Two objects which have almost the same size but different shapes and colors were set separating off in a distance of 35.5 cm, and then the mice were made to seek for 10 minutes. After the seeking, the mice were put back to the gauge. Twenty four hours after the first seeking, a memory retention test was carried out. On this memory retention test, one of the objects was replaced by a new one. The mice were made to seek for 5 minutes, and the time which was taken to seek each object was recorded. The results were shown as a ratio of the seeking time of the new object against that of the two objects. The data were shown as mean±standard deviation. The statistical analyses thereof were carried out using one-way ANOVA and post-hoc Bonferroni test. A p-value of 0.05 or less was considered as a statistical significance.
structure (smiles),measurement,setting,value
"O=C1CCc2cc(OCCCCc3nnnn3C3CCCCC3)ccc2N1 [cilostazol, 6-[4-(1-cyclohexyl-1H-tetrazol-5-yl)butoxy]-3,4-dihydrocarbostyril]",PPI deficits caused by administration of dizocilpine,[1],significantly inhibited
same,locomotion enhanced by administering dizocilpine,[2],significantly inhibited
same,condition of schizophrenia caused by phencyclidine (ratio of the seeking time of the new object),[3]; cilostazol 3 mg/kg orally once a day for two weeks,improved significantly
same,condition of schizophrenia caused by phencyclidine (ratio of the seeking time of the new object),[3]; cilostazol 10 mg/kg orally once a day for two weeks,improved significantly
same,condition of schizophrenia caused by phencyclidine (ratio of the seeking time of the new object),[3]; cilostazol 30 mg/kg orally once a day for two weeks,improved significantly
same,condition of schizophrenia caused by phencyclidine (ratio of the seeking time of the new object),"[3]; cilostazol orally once a day for two weeks, dose-dependently",improved
